Paper PMC12597552 (Drug metabolism and disposition: the biological fate of …, 2025)
Where two headings read alike, the source gives them in different places.

Columns and labels:
CYP3A4 [1] = molecular target: T1, CYP3A4 (Homo sapiens, UniProt P08684); assay: Inhibition of recombinant CYP3A4-overexpressing microsomes (midazolam probe); format: in vitro ADME; set-up: made in house; host or cells: HEK293 cells (microsomal fraction)
CYP3A4 [2] = molecular target: T1, CYP3A4; assay: Initial inhibition screen at 1 or 10 μM, CYP3A4 (recombinant microsomes and HLM); format: in vitro ADME; set-up: made in house; host or cells: HEK293 cells (microsomal fraction)
CB2 receptors = tested on: CB2 receptors; set-up: method as in PMID 10633038; conditions: partial agonist; cited from earlier work
[3] = set by similarity to Δ9-THC; cited from earlier work
CYP2C9 [4] = molecular target: T2, CYP2C9 (Homo sapiens, UniProt P11712); assay: Initial inhibition screen at 1 or 10 μM, CYP2C9 (recombinant microsomes and HLM); format: in vitro ADME; set-up: made in house; host or cells: HEK293 cells (microsomal fraction); conditions: 10 μM cannabinoid; recombinant P450-overexpressing microsomes as well as HLM
T2 sequence (P11712 whole entry): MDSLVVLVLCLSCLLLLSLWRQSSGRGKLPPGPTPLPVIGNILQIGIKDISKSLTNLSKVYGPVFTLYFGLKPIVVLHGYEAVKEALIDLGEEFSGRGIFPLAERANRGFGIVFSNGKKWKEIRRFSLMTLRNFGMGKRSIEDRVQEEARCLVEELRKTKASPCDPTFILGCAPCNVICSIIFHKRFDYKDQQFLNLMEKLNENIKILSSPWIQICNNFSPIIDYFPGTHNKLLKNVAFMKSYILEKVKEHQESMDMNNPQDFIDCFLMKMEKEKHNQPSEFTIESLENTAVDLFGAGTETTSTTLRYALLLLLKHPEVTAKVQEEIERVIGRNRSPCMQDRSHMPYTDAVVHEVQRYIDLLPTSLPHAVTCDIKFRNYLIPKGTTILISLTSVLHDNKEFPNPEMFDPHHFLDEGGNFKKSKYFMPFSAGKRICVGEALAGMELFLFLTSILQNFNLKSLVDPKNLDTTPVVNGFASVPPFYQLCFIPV

CB1 receptors = tested on: CB1 receptors; set-up: method as in PMID 10633038; conditions: partial agonist; cited from earlier work
CYP3A4 [5] = molecular target: T1, CYP3A4; assay: IC50 shift assay in recombinant CYP3A4 microsomes; format: in vitro ADME; set-up: made in house; conditions: recombinant CYP3A4-overexpressing microsomes, probe midazolam (1′-hydroxylation), 1′-hydroxylation of midazolam, rec CYP3A4, 30-min preincubation minus vs plus NADPH, mean ± SD
Procedure: (§1) To characterize inhibition type, IC50 shift studies were performed using recombinant P450-overexpressing microsomes. Assays were preincubated at 37°C for 30 minutes with cannabinoid with or without NADPH in the absence of a probe substrate. After preincubation, substrate was added and incubated for 30 minutes. IC50 values were calculated as mentioned above using GraphPad Prism 10.0.
(§2) IC50shift=IC50with30-minpreincubationminusNADPH/IC50with30-minpreincubationplusNADPH

[6] = tested on: CYPs 1A2, 2B6, 2C8, 2C9, 2C19, 2D6, 2E1, and 3A4; assay: Initial inhibition screen at 1 or 10 μM, panel of major hepatic P450 enzymes; format: in vitro ADME, human; conditions: enzymes other than CYPs 2C9 and 3A4
CYP3A4 [7] = molecular target: T1, CYP3A4; assay: Inhibition of CYP3A4 activity in pooled human liver microsomes (midazolam probe); format: in vitro ADME; set-up: made in house; host or cells: HEK293 cells (microsomal fraction)
Excerpt: V5-tagged human P450 enzymes (CYPs 1A2, 2B6, 2C8, 2C9, 2C19, 2D6, 2E1, and 3A4) were cloned and overexpressed in HEK293 cells and microsomal fractions were isolated by differential centrifugation as previously described,[19] with expression monitored by western blot analysis. An anti-V5-tagged antibody (1:1000) and an anti-calnexin polyclonal rabbit antibody (1:1000) together with an anti-rabbit IgG, HRP-linked antibody (1:5000) were used to probe V5 and calnexin, respectively (Supplemental Fig. 1). Briefly, microsomes (25 μg) were electrophoresed on a 10% SDS–polyacrylamide gel and proteins were transferred to polyvinylidene difluoride membranes using a iBlot Gel Transfer Stacks polyvinylidene difluoride, Regular kit (Catalog No. IB401001). […] Calnexin bands served as the loading control for microsomal protein samples, whereas V5-HRP bands indicated the expression of each P450 enzyme, which was not detected in microsomes from parental HEK293 cells. Microsomal protein quantified using the BCA protein assay following the manufacturer’s instructions. […]
Metabolites were quantified using a Waters Acquity UPLC system coupled to a Xevo TQD triple-quadrupole mass spectrometer (Waters). […]
The percent activity for a given reaction was calculated by comparing metabolite formation between inhibitor-treated incubations and vehicle controls, as detailed below. […]

CYP2C9 and CYP3A4 = assay: IC50,u / Ki,u summarised across all CYP2C9 and CYP3A4 enzyme-substrate pairs; format: in vitro ADME; conditions: human, pH 7.4; both recombinant enzyme microsomes and HLM; read-out: IC50,u against CYPs 2C9 and 3A4
Procedure: Reactions were preincubated at 37°C for 3 minutes before initiating with an NADPH-regenerating system. Incubation times were 5 – 30 minutes for recombinant P450 microsomes (Supplemental Table 1) and 10 minutes for HLM. […] Approximately 30 μL of the supernatant was transferred to an ultraperformance liquid chromatography (UPLC) vial for analysis. To reduce nonspecific binding of cannabinoids, all incubations were performed using low-binding 0.6-mL tubes. Probe substrates were used at concentrations near their Michaelis-Menten constants ( Km ) to minimize off-target interactions.[13],[20]–[25]
Initial screening studies were performed using recombinant P450-overexpressing microsomes and 1 or 10 μM cannabinoid concentrations and validated using HLM. […] All determinations were performed in triplicate for reproducibility.
To determine Ki values for each P450 enzyme, substrate and inhibitor concentrations were selected based on known Km and IC50 values. […] Internal standards (deuterated metabolites) were used to normalize metabolite peak areas. Lineweaver–Burk plots ( 1/v vs 1/S ) were used to characterize inhibition type. […] Reaction velocity ( v ) refers to the rate of metabolite formation, calculated by dividing the metabolite peak area by the internal standard peak area for a given reaction. […]

CYP2C9 [8] = molecular target: T2, CYP2C9; assay: IC50 shift assay in recombinant CYP2C9 microsomes; format: in vitro ADME; set-up: made in house; conditions: recombinant CYP2C9-overexpressing microsomes, probe diclofenac (4′-hydroxylation), 4′-hydroxylation of diclofenac, rec CYP2C9, 30-min preincubation minus vs plus NADPH, mean ± SD
Procedure: as §1, §2

CYP2C9 [9] = molecular target: T2, CYP2C9; assay: Inhibition of recombinant CYP2C9-overexpressing microsomes (diclofenac and warfarin probes); format: in vitro ADME; set-up: made in house; host or cells: HEK293 cells (microsomal fraction); conditions: for inhibition mechanism (Lineweaver–Burk): recombinant P450 microsomes and HLM, consistent profiles; for IC50: IC50,u, rec CYP2C9 microsomes; for IC50 / Ki: unbound, mean ± SD; for Ki: Ki,u, rec CYP2C9
CYP2C9 [10] = molecular target: T2, CYP2C9; assay: Inhibition of CYP2C9 activity in pooled human liver microsomes (diclofenac and warfarin probes); format: in vitro ADME; set-up: made in house; host or cells: HEK293 cells (microsomal fraction); conditions: HLM, unbound, adjusted with fu,inc, mean ± SD; for IC50: IC50,u; for Ki: Ki,u
[11] = cited from earlier work

T1 sequence (P08684 whole entry): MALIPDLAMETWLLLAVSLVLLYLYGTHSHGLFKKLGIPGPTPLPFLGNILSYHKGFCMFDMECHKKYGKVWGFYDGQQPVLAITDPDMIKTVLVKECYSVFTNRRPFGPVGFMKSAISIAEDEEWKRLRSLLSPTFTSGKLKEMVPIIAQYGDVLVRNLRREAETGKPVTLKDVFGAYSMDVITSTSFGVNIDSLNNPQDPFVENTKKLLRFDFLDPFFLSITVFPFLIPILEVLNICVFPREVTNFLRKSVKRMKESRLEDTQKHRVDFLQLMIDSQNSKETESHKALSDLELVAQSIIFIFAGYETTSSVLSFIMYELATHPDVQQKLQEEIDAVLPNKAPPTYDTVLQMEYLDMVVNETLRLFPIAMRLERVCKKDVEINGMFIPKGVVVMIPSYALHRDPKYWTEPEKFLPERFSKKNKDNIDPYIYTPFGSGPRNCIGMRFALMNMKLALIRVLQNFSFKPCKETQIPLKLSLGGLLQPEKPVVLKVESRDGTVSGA

Which IC50 (CYP3A4 [1]) does the source give for `CCCCCc1cc(O)c2c(c1)OC(C)(C)C1CC=C(C)CC21` (centres unmarked) [Δ8-THC, Δ8-Tetrahydrocannabinol] here?
The IC50 was 440 ± 140 nM.

And the Ki (CYP3A4 [1])?
The Ki was 860 ± 280 nM.

And the “Inhibition Type” value (CYP3A4 [1]; 1′-hydroxylation of midazolam, cell merged over rec CYP3A4 and HLM)?
The value was “N”.

What about the “inhibition mechanism (Lineweaver–Burk)” value (CYP3A4 [1]; CYP3A4-mediated midazolam metabolism, recombinant P450 microsomes and HLM, consistent profiles) of the same compound?
The value was “noncompetitive inhibition”.

And the “reduction of 1′-hydroxymidazolam formation” value (CYP3A4 [2]; 10 μM cannabinoid, recombinant P450-overexpressing microsomes as well as HLM)?
Its value is over 40%.

What about the “inhibition of CYP3A4 with testosterone as substrate” value (CYP3A4 [2]; substrate-specific: midazolam vs testosterone) of the same compound?
The value was “inhibition observed for midazolam but not testosterone”.

And the “potency relative to Δ9-THC” value (CB2 receptors)?
Its value is “approximately half”.

What about the “fu,p (unbound fraction of drug in plasma)” value [3] of the same compound?
Its value is 0.03.

What about the “reduction of 4′-hydroxydiclofenac formation” value (CYP2C9 [4]) of the same compound?
Its value is over 40%.

What about the “reduction of 7′-hydroxywarfarin formation” value (CYP2C9 [4]) of the same compound?
Its value is over 40%.

And the “potency relative to Δ9-THC” value (CB1 receptors)?
The value was “approximately half”.

And the IC50 shift at 30 min (CYP3A4 [5])?
The IC50 shift at 30 min was 0.85 ± 0.09.

And the “inhibition of other major hepatic P450 enzymes tested” value [6]?
The value was “Minimal or no inhibition”.

What about the IC50 (CYP3A4 [7]) of the same compound?
The IC50 was 480 ± 110 nM.

And the Ki (CYP3A4 [7])?
Its Ki is 520 ± 20 nM.

And the IC50 (CYP2C9 and CYP3A4)?
Its IC50 is under 500 nM.

What about the IC50 shift at 30 min (CYP2C9 [8]) of the same compound?
Its IC50 shift at 30 min is 1.24 ± 0.34.

And the “Inhibition Type” value (CYP2C9 [9]; 4′-hydroxylation of diclofenac, cell merged over rec CYP2C9 and HLM)?
The value was “N”.

What about the “inhibition mechanism (Lineweaver–Burk)” value (CYP2C9 [9]; CYP2C9-mediated diclofenac metabolism) of the same compound?
Its value is “noncompetitive inhibition”.

And the “inhibition mechanism (Lineweaver–Burk)” value (CYP2C9 [9]; CYP2C9-mediated warfarin metabolism)?
Its value is “competitive inhibition”.

What about the IC50 (CYP2C9 [9]; diclofenac -> 4′-hydroxydiclofenac, adjusted with fu,inc of Δ9-THC / 11-OH-Δ9-THC, 3 experiments) of the same compound?
Its IC50 is 70 ± 10 nM.

And the IC50 (CYP2C9 [9]; warfarin -> 7′-hydroxywarfarin, adjusted with fu,inc)?
Its IC50 is 200 ± 30 nM.

What about the Ki (CYP2C9 [9]; 4′-hydroxylation of diclofenac, adjusted with fu,inc) of the same compound?
The Ki was 260 ± 10 nM.

And the Ki (CYP2C9 [9]; 7′-hydroxylation of warfarin, adjusted with fu,inc)?
The Ki was 90 ± 40 nM.

What about the Ki (CYP2C9 [9]; human, recombinant CYP2C9-overexpressing HEK293 microsomes, pH 7.4, probe warfarin (7′-hydroxylation), 7′-hydroxylation of warfarin, adjusted with fu,inc) of the same compound?
The Ki was 160 ± 40 nM.

And the IC50 (CYP2C9 [10]; diclofenac -> 4′-hydroxydiclofenac)?
The IC50 was 230 ± 30 nM.

What about the IC50 (CYP2C9 [10]; warfarin -> 7′-hydroxywarfarin) of the same compound?
Its IC50 is 440 ± 140 nM.

What about the Ki (CYP2C9 [10]; 4′-hydroxylation of diclofenac) of the same compound?
Its Ki is 320 ± 60 nM.

And the Ki (CYP2C9 [10]; 7′-hydroxylation of warfarin)?
The Ki was 230 ± 90 nM.

What about the Cmax ([11]; oral Δ8-THC dose 10 mg) of the same compound?
The Cmax was 7.9 nM.

And the Cmax ([11]; oral Δ8-THC dose 20 mg)?
The Cmax was 17.8 nM.

And the Cmax ([11]; oral Δ8-THC dose 40 mg)?
Its Cmax is 48 nM.
